The nature of series [1]: Mechanical stimulation method according to Haffner. The format is in vivo. To be noted: mouse, 100 mg/kg orally. As for the experimental part:
b. Mechanical stimulation method according to Haffner (Deutsch. Wisch., 1959, 55, 731-733)
This method comprises placing a forcipressure forceps at the base of the tail of a mouse and noting the number of self-inflicted bites due to the animal's efforts to remove the forceps. The decrease of the number of bites prior to and after oral administration of the test derivative, at a dosage of 100 mg/kg, provides a measure of the antalgic activity of the derivatives of this invention.

Series [2] can be described thus: Ovalbumin-induced systemic edema method. As to conditions: rat, 100 mg/kg orally, one hour prior to and simultaneously with ovalbumin; for Percent decrease (edematous reaction) after two hours: 2 hours; for Percent decrease (edematous reaction) after three hours: 3 hours. The format is in vivo. As for the experimental part: b. Ovalbumin-induced systemic edema method
Rats are administered a simultaneous intraperitoneal injection of 1 ml ovalbumin and 0.5 ml of a 1% aqueous Evans Blue solution. On the other hand, the animals of the treated lot are administered orally 100 mg/kg of the test derivative, one hour prior to and simultaneously with the ovalbumin administration. The determinations are effected after 2 hours and after 3 hours. Thus are determined the average intensity of the edema and the percent decrease of the edematous reaction with respect to the controls.

Series [3] in a line: Acute toxicity, LD50 oral route. To be noted: mouse, in vivo, per kg body weight. The method, then: By the oral route, the LD50 /24 hrs/kg body weight is in excess of 300 mg with derivatives n°1 and n°2.
Series [4] can be described thus: Acetic acid method (writhing), according to Koster, Anderson and de Beer. It counts as in vivo. As to conditions: mice, 100 mg/kg orally, 30 minutes prior to acetic acid i.p.; writhing within following 30 minutes. An excerpt: a. Acetic acid method, according to Koster, Anderson and de Beer (Fed. Proced., 18, 1959, 412, 1, 626).
Intraperitoneal injection of a dilute acetic acid solution produces, in mice, characteristic repeated writhing movements, under the influence of pain.
For orientation: Writhing tests count abdominal constrictions after an irritant is injected.

The nature of series [5]: Acute toxicity, LD50 intravenous route, Miller and Tainter method. To be noted: mouse, in vivo, mice, per kg body weight.
Series [6] in a line: Carrageenin-induced localized edema method. To be noted: rat, 100 mg/kg orally per administration; for Percent anti-inflammatory activity after 1 hour: 1 hour after carrageenin; for Percent anti-inflammatory activity after 2 hours: 2 hours after carrageenin; for Percent anti-inflammatory activity after 5 hours: 5 hours after carrageenin. The format is in vivo. As for the experimental part:
a. Carrageenin-induced localized edema method
A 1% carrageenin solution (0.1 ml) is injected in the metatarsal flexor muscles of the right posterior limb of a rat at time 0 (zero). The animals of the treated lot are additionally given orally 100 mg/kg of the respective test derivatives, one hour prior to and then simultaneously with the injection of the phlogogenic agent, and then one hour and 2.5 hours thereafter. The determinations effected by means of a ROCH micrometer at times 0, 1 hour, 2 hours, 3 hours and 5 hours after carrageenin administration, provide a measure of the percent anti-inflammatory activity, as a function of time.
(Carrageenan injected into the paw causes an acute inflammation.)

Each structure is given as a SMILES string.

We go through six compounds from patent US3983125A, “Thieno-pyridine derivatives, process for their preparation and their applications” (Parcor, priority 1974, dated 1976).

Consider `OC1CNCc2ccsc21` (centres unmarked) [Derivative 1, 7-hydroxy-4,5,6,7-tetrahydro-thieno[3,2-c]pyridine], for which, in series [1], the “Average percent antalgic activity after 30 min.” value came out at 72%, the “Average percent antalgic activity after 1 hr” value is reported as 68%, the “Average percent antalgic activity after 2 hrs” value amounted to 62% and the “Average percent antalgic activity after 3 hrs” value came to 55%. Further, in series [2], the “Percent decrease (edematous reaction) after two hours” value (“Percent decrease … after two hours” below) is recorded as 54% and the “Percent decrease (edematous reaction) after three hours” value (“Percent decrease … after three hours” below) was determined as 58%. The LD50 (as a rule, the dose expected to kill half of the subjects tested) at 24 h in series [3] was above 300 mg/kg. Also, the Percent antalgic activity in series [4] is recorded as 63%. Also, the LD50 at 24 h in series [5] is 75 mg/kg. Further, in series [6], the “Percent anti-inflammatory activity after 1 hour” value is recorded as 41%, the “Percent anti-inflammatory activity after 2 hours” value was 48% and the “Percent anti-inflammatory activity after 5 hours” value amounted to 53%.

In the case of `OC1CNCc2sccc21` (centres unmarked) [Derivative 2, 4-hydroxy-4,5,6,7-tetrahydro-thieno[2,3-c]pyridine], in series [1], the “Average percent antalgic activity after 30 min.” value came to 76%, the “Average percent antalgic activity after 1 hr” value is 69%, the “Average percent antalgic activity after 2 hrs” value came out at 60% and the “Average percent antalgic activity after 3 hrs” value worked out at 54%. Besides, in series [2], the “Percent decrease … after two hours” value is given as 56% and the “Percent decrease … after three hours” value is 65%. The same compound returned an LD50 at 24 h in series [3] above 300 mg/kg. The compound further returned a Percent antalgic activity in series [4] of 66%. In series [5], this compound registered an LD50 at 24 h of 68 mg/kg. Besides, in series [6], the “Percent anti-inflammatory activity after 1 hour” value came to 43%, the “Percent anti-inflammatory activity after 2 hours” value was 54% and the “Percent anti-inflammatory activity after 5 hours” value amounted to 58%.

On to `CC1NCC(O)c2ccsc21` (centres unmarked) [Derivative 3, 4-hydroxy-7-methyl-4,5,6,7-tetrahydro-thieno[2,3-c]pyridine], for which, in series [1], the “Average percent antalgic activity after 30 min.” value worked out at 68%, the “Average percent antalgic activity after 1 hr” value came out at 62%, the “Average percent antalgic activity after 2 hrs” value is on record as 58% and the “Average percent antalgic activity after 3 hrs” value is 50%. Further, in series [2], the “Percent decrease … after two hours” value was found to be 45% and the “Percent decrease … after three hours” value turned out to be 56%. In series [4], this compound displayed a Percent antalgic activity of 55%. The compound further gave an LD50 at 24 h in series [5] of 300 mg/kg. In series [6], the “Percent anti-inflammatory activity after 1 hour” value was determined as 38%, the “Percent anti-inflammatory activity after 2 hours” value was found to be 47% and the “Percent anti-inflammatory activity after 5 hours” value is 56%.

For the compound `CCC1NCC(O)c2ccsc21` (centres unmarked) [Derivative 4, 7-ethyl-4-hydroxy-4,5,6,7-tetrahydro-thieno[2,3-c]pyridine], in series [1], the “Average percent antalgic activity after 30 min.” value stood at 74%, the “Average percent antalgic activity after 1 hr” value is listed as 65%, the “Average percent antalgic activity after 2 hrs” value worked out at 60% and the “Average percent antalgic activity after 3 hrs” value is 52%. Besides, in series [2], the “Percent decrease … after two hours” value is given as 54% and the “Percent decrease … after three hours” value is reported as 62%. This compound yielded a Percent antalgic activity in series [4] of 61%. The LD50 at 24 h in series [5] was 285 mg/kg. Also, in series [6], the “Percent anti-inflammatory activity after 1 hour” value is given as 43%, the “Percent anti-inflammatory activity after 2 hours” value was determined as 51% and the “Percent anti-inflammatory activity after 5 hours” value is 59%.

Regarding `CC1NCC(O)c2sccc21` (centres unmarked) [Derivative 5, 7-hydroxy-4-methyl-4,5,6,7-tetrahydro-thieno[3,2-c]pyridine], in series [1], the “Average percent antalgic activity after 30 min.” value came out at 76%, the “Average percent antalgic activity after 1 hr” value is reported as 64%, the “Average percent antalgic activity after 2 hrs” value stood at 61% and the “Average percent antalgic activity after 3 hrs” value was determined as 52%. Further, in series [2], the “Percent decrease … after two hours” value was found to be 52% and the “Percent decrease … after three hours” value amounted to 64%. This compound also had a Percent antalgic activity in series [4] of 59%. In series [5], this compound yielded an LD50 at 24 h of 155 mg/kg. In addition, in series [6], the “Percent anti-inflammatory activity after 1 hour” value was 41%, the “Percent anti-inflammatory activity after 2 hours” value is 55% and the “Percent anti-inflammatory activity after 5 hours” value is 60%.

`CCC1NCC(O)c2sccc21` (centres unmarked) [Derivative 6, 4-ethyl-7-hydroxy-4,5,6,7-tetrahydro-thieno[3,2-c]pyridine]: in series [1], the “Average percent antalgic activity after 30 min.” value was found to be 71%, the “Average percent antalgic activity after 1 hr” value came out at 67%, the “Average percent antalgic activity after 2 hrs” value is on record as 63% and the “Average percent antalgic activity after 3 hrs” value was 58%. In series [2], the “Percent decrease … after two hours” value stood at 49% and the “Percent decrease … after three hours” value is recorded as 64%. In addition, the Percent antalgic activity in series [4] is given as 58%. In series [5], the LD50 at 24 h amounted to 210 mg/kg. In addition, in series [6], the “Percent anti-inflammatory activity after 1 hour” value is 39%, the “Percent anti-inflammatory activity after 2 hours” value was found to be 51% and the “Percent anti-inflammatory activity after 5 hours” value came out at 57%.
